Data from patent US20020115594A1, “Peptide antagonists at glutamate and NMDA receptors” (priority 1993, published 2002).
Ends that are not written are not given here.

Columns and labels:
[1] = test system: GnRH secretion by hypothalamic explants; assay: In vitro GnRH secretion by hypothalamic explants induced by veratridine (static incubation, GnRH radioimmunoassay); format: cell-based, rat
Description: (§1) The hypothalamic explants of male Wistar rats were studied individually using a static incubation system described earlier (1-3, 9). The total incubation volume of each chamber (0.5 ml) was sampled and renewed every 7.5 min. Using these fractions, the radioimmunoassay of GnRH was performed as described in detail previously (1, 2). The secretion of GnRH was studied either in the absence of any secretagogue or during the 7.5-min exposure to 5.10^−5 M of veratridine, a depolarizing agent opening the Na^+ channel, or 5.10^−2 M of kainate or N-methyl-D, L-aspartate (NMA) which are agonists of distinct subtypes of glutamate receptors. All these products were bought from Sigma, St Louis, Mo. At 25 and 50 days, veratridine was used repeatedly at 37.5-min intervals. At 15 days, veratridine was used at 52.5-min intervals, i.e. beyond the period of refractoriness caused by the inhibitory autofeedback of GnRH(11). The secretory response of GnRH was calculated as the difference between the concentration measured immediately before and during exposure to the secretagogue.
(§2) We studied the effects of the in-vitro exposure to increasing concentrations of recombinant hIGF-I (Kabi-Pharmacia, Stockholm, Sweden) or its two subproducts, (1-3)IGF-I (Peninsula, Merseyside, England) and (4-70)IGF-I (Gropep, Adelaide, Australia). We also studied the effects of other peptides. The GnRH fragments and analogs included (1-5) GnRH (UCB, Brussels, Belgium), (2-10)GnRH (Sigma, St Louis, Mo., USA) and (1-9)GnRHa (D-TRP^6-PRO^9-N-Ethylamide GnRH) a GnRH agonist kindly provided by Dr J Rivier (The Salk Institute, California, USA). The bovine Proinsulin and its subproducts included the C-peptide of insulin and insulin itself (Novo-Nordisk, Copenhagen, Denmark). Finally, the GRF-related peptides included (1-43) rat GRP (Bachem, Bubendorf, Switzerland), (1-37) human GRF (Peninsula, Merseyside, England) and (1-29)human GRF (Kabi Pharmacia, Stockholm, Sweden). AP-5 (DL-2-amino-5-phosphonovaleric acid, Sigma), a selective antagonist at NMDA receptors and DNQX (6,7-dinitro-quinoxaline-2,3-dione, Tocris Neuramin, Buckhurst Hill, United Kingdom) a selective antagonist at kainate receptors, were also used. The different peptides or antagonists were used for 15 min, i.e. the 7.5-min fraction before and during exposure to veratridine. We also studied the effects of a single s.c. injection of IGF-I or its subproducts in 15 or 50 day-old rats. Then, the animals were sacrificed and the hypothalamic explants studied 25 min after the injection, this interval being required to obtain plasma concentrations of IGF-I sufficient to affect protein metabolism (A. Skottner, personal communication). At that time, the serum was collected for the assay of IGF-I using a method described elsewhere (15) and testosterone was measured as well using a standard RIA (Sorin Biomedica). The concentration of the studied substances resulting in 50% inhibition of the GnRH secretory response (IC50) was calculated as described earlier (3, 9) and the data were compared by covariance analysis. The occurrence of significant GnRH secretory pulses was determined using the pulsar program (2, 3).
FIG. 1. In vitro effects of IGF-I-related peptides on GnRH secretion by hypothalamic explants at 15, 25 and 50 days. GnRH secretory response to depolarizing episodes (veratridine 50 μM for 7.5 min) was studied repeatedly at intervals of 52.5 min at 15 days or 37.5 min at 25 and 50 days. Such study was performed in control conditions or in the presence of increasing concentrations of IGF-I and subproducts, (4-70)IGF-I and (1-3)IGF-I, as well as AP-5, a competitive antagonist at NMDA receptors. Each experiment was preceded and followed by a veratridine challenge in control conditions.

NMDA receptors = assay: In vitro GnRH secretion by hypothalamic explants induced by NMA; format: cell-based, rat; conditions: 10^−6 M; explants of 50-day-old male rats; FIG. 8
Description: as §1, with “At 25 and 50 days, veratridine was used repeatedly at 37.5-min intervals. At 15 days, veratridine was used at 52.5-min intervals, i.e. beyond the period of refractoriness caused by the inhibitory autofeedback of GnRH(11).” left out
(§3) We studied the effects of the in-vitro exposure to increasing concentrations of recombinant hIGF-I (Kabi-Pharmacia, Stockholm, Sweden) or its two subproducts, (1-3)IGF-I (Peninsula, Merseyside, England) and (4-70)IGF-I (Gropep, Adelaide, Australia). […] At that time, the serum was collected for the assay of IGF-I using a method described elsewhere (15) and testosterone was measured as well using a standard RIA (Sorin Biomedica). […] The occurrence of significant GnRH secretory pulses was determined using the pulsar program (2, 3). […]

[2] = test system: GnRH secretion by hypothalamic explants; assay: In vitro GnRH secretion by hypothalamic explants induced by veratridine (static incubation, GnRH radioimmunoassay); format: cell-based, rat; remark: listed apart in the source
kainate receptors = assay: In vitro GnRH secretion by hypothalamic explants induced by kainate; format: cell-based, rat; conditions: 10^−6 M; explants of 50-day-old male rats; FIG. 8
Description: as §1, with “At 25 and 50 days, veratridine was used repeatedly at 37.5-min intervals. At 15 days, veratridine was used at 52.5-min intervals, i.e. beyond the period of refractoriness caused by the inhibitory autofeedback of GnRH(11).” left out
as §3

glutamate receptors = assay: Displacement of tritiated glutamate from hypothalamic membrane preparations; format: binding; conditions: FIG. 9
Excerpt: Hypothalmic membrane preparations are used to study the displacement of tritiated glutamate binding in the presence of different compounds. Glutamate is able to displace the binding of the tracer at relatively low 10^−6 to 10^−8 concentrations. […] This is because the affinity of tritiated glutamate for the NMDA receptors is less than for the other subtypes of glutamate receptors.

[3] = test system: brain hypoxic-ischemic injury; conditions: reported in refs 22, 23; cited from earlier work
[4] = test system: GnRH secretion by hypothalamic explants; assay: Spontaneous pulsatile secretion of GnRH from hypothalamic explants after s.c. injection; format: in vivo, rat; conditions: s.c. injection of 0.1 mg/kg; 50-day-old rats; data not shown
Excerpt: as §2, with “The different peptides or antagonists were used for 15 min, i.e. the 7.5-min fraction before and during exposure to veratridine. We also studied the effects of a single s.c. injection of IGF-I or its subproducts in 15 or 50 day-old rats. Then, the animals were sacrificed and the hypothalamic explants studied 25 min after the injection, this interval being required to obtain plasma concentrations of IGF-I sufficient to affect protein metabolism (A. Skottner, personal communication).” left out, “The concentration of the studied substances resulting in 50% inhibition of the GnRH secretory response (IC50) was calculated as described earlier (3, 9) and the data were compared by covariance analysis.” left out, “3). […]” for “3).”

[5] = test system: GnRH secretion by hypothalamic explants; assay: Ex vivo veratridine-induced GnRH secretion by hypothalamic explants after in-vivo s.c. injection; design: species or system rat
Excerpt: as §2, with “3). […]” for “3).”

[6] = in vitro, explants of 50-day-old rats, FIG. 7

NC(CCCP(=O)(O)O)C(=O)O (racemic) [AP-5, DL-2-amino-5-phosphonovaleric acid, reference compound]
effect on veratridine-induced secretion of GnRH ([1]; in vitro, explants at 15, 25 and 50 days): dose-related suppression | effect on secretion of GnRH induced by NMA (NMDA receptors): inhibitory effects

CNC(CC(=O)O)C(=O)O (racemic) [NMA, N-methyl-D, L-aspartate, reference compound]
GnRH secretion induced by veratridine 5.10^−5 M ([2]; +NMA 5.10^−4 M alone, 50-day-old male rats, mean, n = 6): 98 % of controls

O=C1N=c2cc([N+](=O)[O-])c([N+](=O)[O-])cc2=NC1=O [DNQX, 6,7-dinitro-quinoxaline-2,3-dione]
effect on kainate-induced secretion of GnRH (kainate receptors): inhibitory effects

N[C@@H](CCC(=O)O)C(=O)O [Glutamate]
concentrations displacing the binding of the tracer (glutamate receptors): 10^−6 to 10^−8

(1-5)GnRH: peptide with a N-terminal glutamic acid which results from the degradation of GnRH in the hypothalamus (QHWSY; ends and bridges not checked; UniProt P01148 24-28, looked up, fragment)
displacement of tritiated glutamate binding (glutamate receptors): act as competitors of glutamate binding | effect on veratridine-induced secretion of GnRH ([1]; FIG. 6): inhibited

(1-29)GRF: human GRF subproduct retaining GH-releasing activity (YADAIFTNSYRKVLGQLSARKLLQDIMSR; Somatoliberin; UniProt P01286 32-60, looked up, fragment) [reference compound]
effect on veratridine-induced secretion of GnRH [1, 6]: does not affect

(1-37)GRF: human GRF subproduct, minor physiological form with a C-terminal glutamic acid (YADAIFTNSYRKVLGQLSARKLLQDIMSRQQGESNQE; Somatoliberin; UniProt P01286 32-68, looked up, fragment)
effect on veratridine-induced secretion of GnRH [1, 6]: dose-related inhibition

(1-43)GRF: full (1-43) sequence of rat Growth Hormone-Releasing Factor (HADAIFTSSYRRILGQLYARKLLHEIMNRQQGERNQEQRSRFN; Somatoliberin; UniProt P09916 31-73, looked up) [reference compound]
effect on veratridine-induced secretion of GnRH [1, 6]: dose-related inhibition

D-TRP^6-PRO^9-N-Ethylamide GnRH [(1-9)GnRHa, reference compound]
effect on veratridine-induced secretion of GnRH ([1]; FIG. 6): can be inhibited | IC50 ([1]; FIG. 6, read-out: IC50, inhibition of veratridine-induced GnRH secretion): 0.2 nM

IGF-I: recombinant hIGF-I (Kabi-Pharmacia)
displacement of tritiated glutamate binding (glutamate receptors): act as competitors of glutamate binding | effect on GnRH secretion from explants of 30-day-old female rats ([2]; data not shown): inhibited | protection against brain hypoxic-ischemic injury [3]: can protect | effect on GnRH secretion at very high concentrations ([1]; 10^−4 and 10^−3 M, explants at 15 days, FIG. 4): inhibition of GnRH secretion | effect on veratridine-induced secretion of GnRH ([1]; in vitro, explants at 25 and 50 days): dose-related inhibition | effect on veratridine-induced secretion of GnRH ([1]; in vitro, explants at 15 days): not affected | inhibitory effect on GnRH secretion in the presence of peptidase inhibitors ([1]; three different peptidase inhibitors, FIG. 5): can be prevented | period for which spontaneous pulsatile secretion of GnRH is abolished [4]: ~2 h | period of suppression of the GnRH secretory response to veratridine ([5]; s.c. 0.05-0.2 mg/kg, directly related to dose, 50-day-old animals): 47.5 to 107.5 min | ex vivo effectiveness on veratridine-induced GnRH secretion at 15 and 50 days ([5]; s.c. injection, higher doses at 15 days, FIG. 3): only effective at 50 days | period of marked inhibition of in-vitro GnRH secretion in response to veratridine ([5]; single s.c. injection of 0.5 mg/kg, 50-day-old animals): up to 167.5 min

insulin: bovine insulin
effect on veratridine-induced secretion of GnRH [1, 6]: no effects

B1: Proinsulin: bovine Proinsulin (protein, UniProt P01317 25-105, looked up)
pro-form: FVNQHLCGSHLVEALYLVCGERGFFYTPKARREVEGPQVGALELAGGPGAGGLEGPPQKRGIVEQCCASVCSLYQLENYCN
modifications: pro-form
effect on veratridine-induced secretion of GnRH [1, 6]: dose-related suppression
